These results are taken from patent US20250042876A1, “HERBICIDAL PYRAZOLE PYRIMIDINE COMPOUNDS” (SYNGENTA CROP PROTECTION AG, priority 2021, published 2025).

Assay type in all cases: in vivo
What all share (conditions): 250 g/ha, evaluated after 13 days

Assay [1] deals with Echinochloa crus-galli (ECHCG). As to the kind of experiment: Post-emergence herbicidal test, glasshouse.
The test system of assay [2] is Amaranthus palmeri (AMAPA). Briefly: Post-emergence herbicidal test, glasshouse.
Assay [3] deals with Amaranthus retoflexus (AMARE). Briefly: Post-emergence herbicidal test, glasshouse.
Assay [4] deals with Setaria faberi (SETFA). As to the kind of experiment: Post-emergence herbicidal test, glasshouse.
In assay [5] the test system is Ipomoea hederacea (IPOHE). As to the kind of experiment: Post-emergence herbicidal test, glasshouse.
The test system of assay [6] is Echinochloa crus-galli (ECHCG). Briefly: Pre-emergence herbicidal test, glasshouse.
Assay [7] concerns Amaranthus palmeri (AMAPA). As to the kind of experiment: Pre-emergence herbicidal test, glasshouse.
For assay [8], the system named is Amaranthus retoflexus (AMARE). Briefly: Pre-emergence herbicidal test, glasshouse.
Assay [9] relates to Setaria faberi (SETFA). As to the kind of experiment: Pre-emergence herbicidal test, glasshouse.
The subject of assay [10] is Ipomoea hederacea (IPOHE). As to the kind of experiment: Pre-emergence herbicidal test, glasshouse.

Consider `FC(F)c1cc(Cc2ncc(Cl)cn2)n(-c2ccc(C(F)(F)F)cc2)n1` [Compound 1.016], for which the “ECHCG percentage damage caused to the plant (five-point scale)” value in assay [1] and in assay [6] was 5 (5=81-100%) throughout. Further, the “AMAPA percentage damage caused to the plant (five-point scale)” value in assay [2] and in assay [7] was 5 (5=81-100%) throughout. In addition, the “AMARE percentage damage caused to the plant (five-point scale)” value in assay [3] and in assay [8] was 5 (5=81-100%) throughout. The “SETFA percentage damage caused to the plant (five-point scale)” value with Setaria faberi (SETFA) [4] and in the assay with Setaria faberi (SETFA) [9] was 5 (5=81-100%) each time. Moreover, the “IPOHE percentage damage caused to the plant (five-point scale)” value in assay [5] was 3 (3=41-60%); in assay [10], 5 (5=81-100%).

For the compound `FC(F)c1cc(Cc2ncc(Cl)cn2)n(-c2ccc(Cl)nc2)n1` [Compound 1.035], the “ECHCG percentage damage caused to the plant (five-point scale)” value in [1] is given as 3 (3=41-60%); in [6], 4 (4=61-80%). Also, the entries for the “AMAPA percentage damage caused to the plant (five-point scale)” value in assay [2] and in assay [7] were 4 (4=61-80%) and 5 (5=81-100%), respectively. Moreover, the “AMARE percentage damage caused to the plant (five-point scale)” value in assay [3] is listed as 4 (4=61-80%); in assay [8] it was 5 (5=81-100%). Besides, the “SETFA percentage damage caused to the plant (five-point scale)” value with Setaria faberi (SETFA) [4] is recorded as 3 (3=41-60%); with Setaria faberi (SETFA) [9], 5 (5=81-100%). In addition, the “IPOHE percentage damage caused to the plant (five-point scale)” value in [5] and in [10] was 4 (4=61-80%) each time.
